The source of these data is PubChem BioAssay (NCI).

Experiment in all cases: growth of human tumour cells (NCI), 48 h
Assay [1] has as its system SK-MEL-2 melanoma.
In assay [2] the test system is CAKI-1 renal.
Assay [3] deals with MDA-MB-231 breast.
The subject of assay [4] is SNB-19 CNS.
Assay [5] has as its system BT-549 breast.
For assay [6], the system named is OVCAR-5 ovarian.
The test system of assay [7] is HCT-15 colon.
Assay [8] has as its system K-562 leukemia.
Assay [9] has as its system SF-268 CNS.
Assay [10] deals with HT29 colon.

Each structure is given as a SMILES string.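 Tested at 5 concentrations; 48 h exposure; 96-well plates; endpoints linearly interpolated, else capped at highest concentration. TGI is the concentration that stops growth completely.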

`N=C1/C(=C/c2ccc(F)cc2)C(=O)N=C2SC=NN12`: the TGI in assay [1], in [2], in assay [3], in assay [4], in assay [5] and in [6] was > 100 µM in each case. Moreover, the TGI in [7], in assay [8], in assay [9] and in assay [10] was > 100 µM in each case.
On to `c1nc(OCC2CCCCC2)c2[nH]cnc2n1`, for which the TGI in assay [1], in [2], in assay [3], in assay [4], in assay [5] and in assay [6] was > 100 µM each time. In addition, the TGI in assay [7], in assay [8], in [9] and in assay [10] was > 100 µM throughout.
For `N#Cc1c(-c2ccc(Cl)cc2)c2c([nH]c1=O)-c1ccccc1SC2`, the TGI in assay [1], in assay [2], in assay [3], in assay [4], in assay [5] and in assay [6] was > 100 µM each time. Besides, the TGI in assay [7], in assay [8], in assay [9] and in assay [10] was > 100 µM in each case.
For the compound `C=C(CCC/C(C)=C/C=C/[C@]1(C)CCCc2ccoc21)CC(=O)O`, the TGI in [1], in assay [2], in [3], in [4], in assay [5] and in [6] was > 100 µM each time. The TGI in assay [7], in assay [8], in assay [9] and in assay [10] was > 100 µM throughout.
Turning to `CC(=O)N(C)c1ccc(Nc2cc(C)[nH]c3ccc4ncnc4c23)cc1`, the TGI in assay [1] came to 23.2 µM; in assay [2], 23.8 µM; in assay [3] it was 30.4 µM; in [4], 42.4 µM; in assay [5] it was 24.5 µM; in assay [6], 29.4 µM. In addition, the TGI in assay [7] is 93.3 µM; in assay [8] it was 74 µM; in assay [9], 38.7 µM; in [10] it was 34 µM.
Turning to `O=C1NC(=O)C(c2c[nH]c3ccccc23)=C1c1cnc[nH]1`, the TGI in assay [1], in [2], in assay [3], in [4], in assay [5] and in assay [6] was > 100 µM in each case. The TGI in assay [7], in [8], in assay [9] and in assay [10] was > 100 µM in each case.
In the case of `CCOC(=O)C1=C(C)N(Cc2ccc(Cl)cc2Cl)C2(O)C=CC(=O)C3C(=O)N(c4ccccc4)C(=O)C132` (stereo not given), the TGI in [1] was 4.27 µM; in [2], 9.36 µM; in assay [3] it was 6.44 µM; in [4] it was 3.73 µM; in assay [5], 3.27 µM; in assay [6], 22.3 µM. Further, the TGI in assay [7] is 3.88 µM; in assay [8] it was 4.04 µM; in [9] it was 11.3 µM; in assay [10], 3.5 µM.
As to `COc1ccccc1/C(=N\OCCC(=O)O)c1cccs1`, the TGI in assay [1], in [2], in assay [3], in assay [4], in assay [5] and in assay [6] was > 100 µM throughout. Moreover, the TGI in assay [7], in assay [8], in [9] and in assay [10] was > 100 µM each time.
Take `CCOC(=O)c1c(NC(=O)c2cccs2)sc2c1CCCC2`: the TGI in assay [1] was > 100 µM; in [2] it was > 100 µM; in [3] it was 69.8 µM; in [4], > 81.2 µM; in assay [5], > 100 µM; in assay [6] it was > 100 µM. Moreover, the TGI is > 100 µM in [7], > 100 µM in [8], 73.6 µM in [9] and > 100 µM in [10].
Take `CS(=O)(=O)O[C@H]1CN2C[C@@H](O)[C@@H](O)[C@H]2[C@H]1CO`: the TGI in [1], in assay [2], in [3], in assay [4], in assay [5] and in assay [6] was > 100 µM each time. Further, the TGI in assay [7], in [8], in assay [9] and in assay [10] was > 100 µM each time.
Regarding `Nc1c2c(nc3cc(F)c(F)cc13)CCC2`, the TGI in [1], in assay [2], in assay [3], in assay [4], in assay [5] and in [6] was > 100 µM throughout. The TGI in assay [7], in assay [8], in assay [9] and in assay [10] was > 100 µM each time.
Consider `O=C(O)CC1NC(/C(=C/c2ccccc2)NC(=O)c2ccccc2)OC1=O` (stereo not given), for which the TGI in assay [1] was 66.6 µM; in assay [2] it was > 100 µM; in assay [3] it was 69.7 µM; in assay [4], 67.6 µM; in [5], 44.2 µM; in [6], > 100 µM. The TGI in assay [7] was > 100 µM; in assay [8], 56 µM; in assay [9], > 100 µM; in assay [10], > 100 µM.
With `C/C(=N\NC(=S)N1CCCCC1)c1nc2ncccc2[nH]1`, the TGI in [1] is > 100 µM; in assay [2] it was > 100 µM; in [3], > 100 µM; in assay [4] it was > 100 µM; in [5], 28.3 µM; in assay [6], 76.4 µM. Besides, the TGI was > 100 µM in assay [7], 43.7 µM in assay [8], > 100 µM in assay [9] and > 100 µM in [10].
On to `O=C(NC(Cc1c[nH]c2ccccc12)C(=O)Nc1ccc(Br)cc1)OCc1ccccc1` (stereo not given), for which the TGI in assay [1] amounted to 19.2 µM; in assay [2], 34.6 µM; in assay [3], 22.9 µM; in assay [4], 90.8 µM; in assay [5], 29.8 µM; in assay [6] it was 35.1 µM. Also, the TGI in [7] came to 26.7 µM; in assay [8] it was 51.3 µM; in assay [9], 37.7 µM; in assay [10] it was 21.6 µM.
Turning to `COC(=O)C1=C(C)NC2=C(C(=O)c3ccccc32)C1c1cn(-c2ccccc2)nc1-c1ccccc1` (stereo not given), the TGI in assay [1], in [2], in assay [3], in assay [4], in assay [5] and in assay [6] was > 100 µM throughout. For the same compound, the TGI in [7] is > 100 µM; in assay [8], > 100 µM; in [9], > 100 µM; in [10], > 30.5 µM.
Turning to `O=Cc1cn(CCCCCCCCCCCCn2cc(C=O)c3ccccc32)c2ccccc12`, the TGI in assay [1], in [2], in assay [3], in assay [4], in assay [5] and in assay [6] was > 100 µM throughout. The TGI in assay [7], in [8], in assay [9] and in assay [10] was > 100 µM in each case.
In the case of `OC1(C(F)(F)F)OCCN=C1C(F)(F)F` (stereo not given), the TGI in assay [1], in assay [2], in assay [3], in [4], in [5] and in [6] was > 100 µM in each case. For the same compound, the TGI in assay [7], in assay [8], in [9] and in [10] was > 100 µM in each case.
On to `OCCCCCCCCCCCOc1ccc(C2OCC3(CO2)COC(c2ccc(OCCCCCCCCCCCO)cc2)OC3)cc1` (stereo not given), for which the TGI in assay [1], in assay [2], in assay [3], in assay [4], in assay [5] and in [6] was > 50 µM in each case. The TGI in assay [7], in assay [8], in assay [9] and in [10] was > 50 µM in each case.
Turning to `CCN(CC)CCC(=O)/C=C/c1ccccc1`, the TGI was determined as 65.5 µM in assay [1]; 14.1 µM in assay [2]; 28.9 µM in assay [3]; 37.1 µM in [4]; 21.9 µM in assay [5]; 31.3 µM in [6]. Also, the TGI in [7] came out at 32 µM; in assay [8] it was 13.6 µM; in [9], 15.6 µM; in assay [10], 12.4 µM.
In the case of `NC1CC(=O)c2c(Br)csc21` (stereo not given), the TGI in [1] was > 100 µM; in assay [2], > 100 µM; in [3], > 100 µM; in assay [4], > 100 µM; in [5], 97.5 µM; in assay [6], > 100 µM. Besides, the TGI in [7], in assay [8], in assay [9] and in assay [10] was > 100 µM each time.
With `Cc1cc(C)nc(NC(=O)c2ccc(Br)s2)c1`, the TGI is > 100 µM in assay [1]; > 100 µM in assay [2]; 81.6 µM in assay [3]; > 100 µM in [4]; > 100 µM in [5]; 62.4 µM in assay [6]. Moreover, the TGI in [7], in [8], in assay [9] and in assay [10] was > 100 µM in each case.
As to `CCOc1cc2c(OCc3ccccc3)cc3c4cc(OC)c(OC)cc4c[n+](C)c3c2cc1OC`, the TGI in assay [1] is 2.59 µM; in assay [2] it was > 69.4 µM; in assay [3], 6.65 µM; in assay [4] it was 2.44 µM; in assay [5], 4.72 µM; in assay [6], 44 µM. Further, the TGI in assay [7] is > 100 µM; in assay [8], > 42.6 µM; in assay [9], 4.91 µM; in [10], 11.1 µM.
For `CNC(C#N)c1ccc(OC)cc1` (stereo not given), the TGI in [1], in assay [2], in [3], in [4], in [5] and in [6] was > 100 µM each time. In addition, the TGI in assay [7], in assay [8], in assay [9] and in assay [10] was > 100 µM each time.
On to `CC1=CC(C)C/C=C/C2C3OC3(C)C(C)C3C(Cc4c[nH]c5ccccc45)NC(=O)C23C(=O)C=CC(=O)C1O` (stereo not given), for which the TGI in assay [1] was 34.6 µM; in [2] it was 2.94 µM; in assay [3], 16.9 µM; in assay [4], > 46.6 µM; in assay [5], 10.3 µM; in assay [6] it was 27.5 µM. The TGI is 8.67 µM in [7], > 100 µM in assay [8], 40.7 µM in assay [9] and 6.66 µM in assay [10].
